In patent publication US9458198B1, “Cyclic peptide-based NPR-B agonists” (priority 2009, dated 2016):
Read-outs that look alike come from different tables or passages of the source. Where a SMILES comes first, the peptide text is derived from it. Bridges are numbered along the chain shown (N, C = ends). [ ]: non-standard residue; d: D form. The star is where a group is joined. Hexanoyl = CCCCCC(=O)*

Molecular target: T1, NPR-B (Homo sapiens, UniProt P20594)
T1 construct: a functional assay using endogenously NPR-B expressing GTM-3 cells; endogenous in cells; host or cells: GTM-3 (transformed human trabecular meshwork cells)
T1 sequence (P20594 23-1047): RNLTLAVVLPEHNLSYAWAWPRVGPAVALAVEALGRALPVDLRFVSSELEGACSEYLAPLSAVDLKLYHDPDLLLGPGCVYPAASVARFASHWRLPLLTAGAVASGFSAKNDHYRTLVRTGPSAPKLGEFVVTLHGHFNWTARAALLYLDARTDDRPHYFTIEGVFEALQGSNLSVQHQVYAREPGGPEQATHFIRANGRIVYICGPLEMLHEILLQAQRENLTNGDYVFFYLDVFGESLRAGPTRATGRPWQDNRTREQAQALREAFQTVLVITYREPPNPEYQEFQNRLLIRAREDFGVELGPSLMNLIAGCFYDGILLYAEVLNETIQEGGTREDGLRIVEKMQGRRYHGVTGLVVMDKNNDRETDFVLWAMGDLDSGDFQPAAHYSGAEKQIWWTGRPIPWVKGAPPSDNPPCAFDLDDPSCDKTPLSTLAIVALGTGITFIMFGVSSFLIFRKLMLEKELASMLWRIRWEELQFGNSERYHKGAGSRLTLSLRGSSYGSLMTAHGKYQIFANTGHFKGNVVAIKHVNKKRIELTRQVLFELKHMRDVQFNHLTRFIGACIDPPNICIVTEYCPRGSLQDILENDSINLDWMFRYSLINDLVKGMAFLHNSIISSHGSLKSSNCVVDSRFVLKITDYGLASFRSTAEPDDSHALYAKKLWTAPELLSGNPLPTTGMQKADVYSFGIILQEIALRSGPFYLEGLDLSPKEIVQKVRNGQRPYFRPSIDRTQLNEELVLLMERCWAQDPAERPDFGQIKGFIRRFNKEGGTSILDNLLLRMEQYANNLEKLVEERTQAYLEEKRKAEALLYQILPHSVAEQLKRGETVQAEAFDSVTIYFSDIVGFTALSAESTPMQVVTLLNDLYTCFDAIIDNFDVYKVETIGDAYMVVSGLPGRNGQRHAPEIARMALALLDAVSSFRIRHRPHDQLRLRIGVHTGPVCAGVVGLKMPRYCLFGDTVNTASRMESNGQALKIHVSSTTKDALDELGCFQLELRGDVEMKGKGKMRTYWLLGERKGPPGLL
Test: NPR-B induced production of cyclic GMP in GTM-3 cells
Format: cell-based
Procedure: The efficacy and potency of compounds to activate NPR-B were evaluated in a functional assay using endogenously NPR-B expressing GTM-3 cells (Pang et al. 1994, Curr Eye Res 13:51-63). In this assay the dose dependent production of cyclic GMP (cGMP) is determined and Emax (maximum activation) and EC50 values are calculated.
The cell culture medium is aspirated and each well is washed with 200 μl DMEM/Ham's F12=Medium (Gibco). Then, 200 μl Medium supplemented with 1 mM IBMX (3-Isobutyl-1-methyl-xanthin, Sigma) is added to each well and incubated for 15 min. at room temperature.
Final compound concentrations are in the range from 45 μM to 20 nM.

[1] = Activity (group): NPR-B activation, EC50 and Emax (CNP = 100%), GTM-3 cells, group needs both EC50 and Emax criteria, checked A then B then C
[2] = GTM-3 cells, group needs both EC50 and Emax criteria, checked A then B then C, read-out: Activity (group): NPR-B activation, EC50 and Emax (CNP = 100%)
[3] = Activity (group): NPR-B activation, EC50 and Emax (CNP = 100%)

Row | Compound | EC50 [2] [nM] | EC50 [3] [nM] | other results
1 | CC[C@H](C)[C@@H]1NC(=O)[C@H](CCCNC(=N)N)NC(=O)[C@H](CC(=O)O)NC(=O)[C@H](CC(C)C)NC(=O)[C@@H]2CCCN2C(=O)[C@H](CC(C)C)NC(=O)CNC(=O)[C@H](Cc2ccccc2)NC(=O)[C@@H](C)NC(=O)[C@@H](NC(=O)[C@@H](N)CCSC)CSSC[C@@H](C(N)=O)NC(=O)[C@H](CO)NC1=O [compound 49] | – | – | EC50 [1]: < 1000 nM
2 | CC[C@H](C)[C@@H]1NC(=O)[C@H](CCCNC(=N)N)NC(=O)[C@H](CC(=O)O)NC(=O)[C@H]([C@@H](C)CC)NC(=O)[C@H](CCCCN)NC(=O)[C@H](CC(C)C)NC(=O)CNC(=O)[C@H](Cc2ccccc2)NC(=O)[C@@H](C)NC(=O)[C@@H](NC(=O)[C@@H](N)CCSC)CSSC[C@@H](C(N)=O)NC(=O)[C@H](CO)NC1=O [compound 53] (H-MC[dA]FGLKIDRISC-NH2; disulfide 2-13) | < 1000 | – | –
3 | CC[C@H](C)[C@@H]1NC(=O)[C@H](CCCNC(=N)N)NC(=O)[C@H](CC(=O)O)NC(=O)[C@H](C(C)C)NC(=O)[C@H](CCCCN)NC(=O)[C@H](CC(C)C)NC(=O)CNC(=O)[C@H](Cc2ccccc2)NC(=O)[C@@H](C)NC(=O)[C@@H](NC(=O)[C@@H](N)CCSC)CSSC[C@@H](C(N)=O)NC(=O)[C@H](CO)NC1=O [compound 54] (H-MC[dA]FGLKVDRISC-NH2; disulfide 2-13) | < 5000 | – | –
4 | CSCC[C@H](N)C(=O)N[C@H]1CSSC[C@@H](C(N)=O)NC(=O)[C@H](CO)NC(=O)[C@H](CC(C)C)NC(=O)[C@H](CCCNC(=N)N)NC(=O)[C@H](CC(=O)O)NC(=O)[C@H](CC(C)C)NC(=O)[C@H](CCCCN)NC(=O)[C@H](CC(C)C)NC(=O)CNC(=O)[C@H](Cc2ccccc2)NC(=O)[C@@H](C)NC1=O [compound 56] (H-MC[dA]FGLKLDRLSC-NH2; disulfide 2-13) | < 5000 | – | –
5 | CSCC[C@H](N)C(=O)N[C@H]1CSSC[C@@H](C(N)=O)NC(=O)[C@H](CO)NC(=O)[C@H](C(C)C)NC(=O)[C@H](CCCNC(=N)N)NC(=O)[C@H](CC(=O)O)NC(=O)[C@H](CC(C)C)NC(=O)[C@H](CCCCN)NC(=O)[C@H](CC(C)C)NC(=O)CNC(=O)[C@H](Cc2ccccc2)NC(=O)[C@@H](C)NC1=O [compound 57] (H-MC[dA]FGLKLDRVSC-NH2; disulfide 2-13) | < 5000 | – | –
6 | CCC(=O)N[C@H]1CSSC[C@@H](C(N)=O)NC(=O)[C@H](CO)NC(=O)[C@H]([C@@H](C)CC)NC(=O)[C@H](CCCNC(=N)N)NC(=O)[C@H](CC(=O)O)NC(=O)[C@H](CC(C)C)NC(=O)[C@H](CCCCN)NC(=O)[C@H](CC(C)C)NC(=O)CNC(=O)[C@H](Cc2ccccc2)NC(=O)[C@@H](C)NC1=O [compound 62] | – | < 5000 | –
7 | CC[C@H](C)[C@@H]1NC(=O)[C@H](CCCNC(=N)N)NC(=O)[C@H](CC(=O)O)NC(=O)[C@H](CC(C)C)NC(=O)[C@H](CCCCN)NC(=O)[C@H](CC(C)C)NC(=O)CNC(=O)[C@H](Cc2ccccc2)NC(=O)[C@@H](C)NC(=O)[C@@H](NC(=O)CC(C)C)CSSC[C@@H](C(N)=O)NC(=O)[C@H](CO)NC1=O [compound 63] | – | < 5000 | –
8 | CC[C@H](C)[C@@H]1NC(=O)[C@H](CCCNC(=N)N)NC(=O)[C@H](CC(=O)O)NC(=O)[C@H](CC(C)C)NC(=O)[C@H](CCCCN)NC(=O)[C@H](CC(C)C)NC(=O)CNC(=O)[C@H](Cc2ccccc2)NC(=O)[C@@H](C)NC(=O)[C@@H](NC(=O)CCC(C)C)CSSC[C@@H](C(N)=O)NC(=O)[C@H](CO)NC1=O [compound 64] | – | < 1000 | –
9 | CCCCCC(=O)N[C@H]1CSSC[C@@H](C(N)=O)NC(=O)[C@H](CO)NC(=O)[C@H]([C@@H](C)CC)NC(=O)[C@H](CCCNC(=N)N)NC(=O)[C@H](CC(=O)O)NC(=O)[C@H](CC(C)C)NC(=O)[C@H](CCCCN)NC(=O)[C@H](CC(C)C)NC(=O)CNC(=O)[C@H](Cc2ccccc2)NC(=O)[C@@H](C)NC1=O [compound 65] | – | < 1000 | –
10 | CC[C@H](C)[C@@H]1NC(=O)[C@H](CCCNC(=N)N)NC(=O)[C@H](CC(=O)O)NC(=O)[C@H](CC(C)C)NC(=O)[C@H](CCCCN)NC(=O)[C@H](CC(C)C)NC(=O)CNC(=O)[C@H](Cc2ccccc2)NC(=O)[C@@H](C)NC(=O)[C@@H](NC(=O)c2ccccc2)CSSC[C@@H](C(N)=O)NC(=O)[C@H](CO)NC1=O [compound 66] | – | – | EC50 [1]: < 5000 nM
11 | CC[C@H](C)[C@@H]1NC(=O)[C@H](CCCNC(=N)N)NC(=O)[C@H](CC(=O)O)NC(=O)[C@H](CC(C)C)NC(=O)[C@H](CCCCN)NC(=O)[C@H](CC(C)C)NC(=O)CNC(=O)[C@H](Cc2ccccc2)NC(=O)[C@@H](C)NC(=O)[C@@H](NC(=O)CCCC(C)C)CSSC[C@@H](C(N)=O)NC(=O)[C@H](CO)NC1=O [compound 67] | – | < 1000 | –
12 | CCCCCCCC(=O)N[C@H]1CSSC[C@@H](C(N)=O)NC(=O)[C@H](CO)NC(=O)[C@H]([C@@H](C)CC)NC(=O)[C@H](CCCNC(=N)N)NC(=O)[C@H](CC(=O)O)NC(=O)[C@H](CC(C)C)NC(=O)[C@H](CCCCN)NC(=O)[C@H](CC(C)C)NC(=O)CNC(=O)[C@H](Cc2ccccc2)NC(=O)[C@@H](C)NC1=O [compound 68] | – | < 1000 | –
13 | CC[C@H](C)[C@@H]1NC(=O)[C@H](CCCNC(=N)N)NC(=O)[C@H](CC(=O)O)NC(=O)[C@H](CC(C)C)NC(=O)[C@H](CCCCN)NC(=O)[C@H](CC(C)C)NC(=O)CNC(=O)[C@H](Cc2ccccc2)NC(=O)[C@@H](C)NC(=O)[C@@H](NC(=O)Cc2ccccc2)CSSC[C@@H](C(N)=O)NC(=O)[C@H](CO)NC1=O [compound 69] | – | – | EC50 [1]: < 5000 nM
14 | CC[C@H](C)[C@@H]1NC(=O)[C@H](CCCNC(=N)N)NC(=O)[C@H](CC(=O)O)NC(=O)[C@H](CC(C)C)NC(=O)[C@H](CCCCN)NC(=O)[C@H](CC(C)C)NC(=O)CNC(=O)[C@H](Cc2ccccc2)NC(=O)[C@@H](C)NC(=O)[C@@H](NC(=O)CCc2ccccc2)CSSC[C@@H](C(N)=O)NC(=O)[C@H](CO)NC1=O [compound 70] | – | < 1000 | –
15 | CCCCS(=O)(=O)N[C@H]1CSSC[C@@H](C(N)=O)NC(=O)[C@H](CO)NC(=O)[C@H]([C@@H](C)CC)NC(=O)[C@H](CCCNC(=N)N)NC(=O)[C@H](CC(=O)O)NC(=O)[C@H](CC(C)C)NC(=O)[C@H](CCCCN)NC(=O)[C@H](CC(C)C)NC(=O)CNC(=O)[C@H](Cc2ccccc2)NC(=O)[C@@H](C)NC1=O [compound 71] | < 5000 | – | –
16 | CC[C@H](C)[C@@H]1NC(=O)[C@H](CCCNC(=N)N)NC(=O)[C@H](CC(=O)O)NC(=O)[C@H](CC(C)C)NC(=O)[C@H](CCCCN)NC(=O)[C@H](CC(C)C)NC(=O)CNC(=O)[C@H](Cc2ccccc2)NC(=O)[C@@H](C)NC(=O)[C@@H](NC(=O)CCCc2ccccc2)CSSC[C@@H](C(N)=O)NC(=O)[C@H](CO)NC1=O [compound 72] | – | < 1000 | –
17 | CC[C@H](C)[C@@H]1NC(=O)[C@H](CCCNC(=N)N)NC(=O)[C@H](CC(=O)O)NC(=O)[C@H](CC(C)C)NC(=O)[C@H](CCCCN)NC(=O)[C@H](CC(C)C)NC(=O)CNC(=O)[C@H](Cc2ccccc2)NC(=O)[C@@H](C)NC(=O)[C@@H](N)CSSC[C@@H](C(N)=O)NC(=O)[C@H](CO)NC1=O [compound 73] | – | – | EC50 [1]: < 15000 nM
18 | CCCCCC(=O)N[C@H]1CSSC[C@@H](C(N)=O)NC(=O)[C@H](CO)NC(=O)[C@H]([C@@H](C)CC)NC(=O)[C@H](CCCNC(=N)N)NC(=O)[C@H](CC(=O)O)NC(=O)[C@H]([C@@H](C)CC)NC(=O)[C@H](CCCCN)NC(=O)[C@H](CC(C)C)NC(=O)CNC(=O)[C@H](Cc2ccccc2)NC(=O)[C@@H](C)NC1=O [compound 87] (Hexanoyl-C[dA]FGLKIDRISC-NH2; disulfide 1-12) | < 1000 | – | –
19 | CCCCCC(=O)N[C@H]1CSSC[C@@H](C(N)=O)NC(=O)[C@H](CO)NC(=O)[C@H]([C@@H](C)CC)NC(=O)[C@H](CCCNC(=N)N)NC(=O)[C@H](CC(=O)O)NC(=O)[C@H]([C@@H](C)CC)NC(=O)[C@@H]2CCCN2C(=O)[C@H](CC(C)C)NC(=O)CNC(=O)[C@H](Cc2ccccc2)NC(=O)[C@@H](C)NC1=O [compound 88] (Hexanoyl-C[dA]FGLPIDRISC-NH2; disulfide 1-12) | – | – | EC50 [1]: < 1000 nM
